Laboratory results taken from patent US20210283146A1, “COMPOSITION CONTAINING A 7BETA-HYDROXYCHOLESTEROL AND A LIPID VEHICLE, AND ITS USE IN THE TREATMENT OF NEOPLASTIC PATHOLOGIES” (priority 2018, published 2021).

How the values were obtained:
[1] = system: beagle dogs; assay: Study of tolerance of BIM2b PO in healthy dogs
[2] = system: beagle dogs; conditions: dog, in vivo
[3] = Analysis of BIM2b in the brains of mice treated per os with BIM2b PO (HPTLC); assay type: in vivo, mouse; conditions: for Compound BIM2b (μg/g of brain): healthy mice, BIM2b PO per os
Description: The mouse brains dried and stored invididually in cryotubes at […] in liquid nitrogen are left to return to ambient temperature. Each brain is weighed and put in the Potter; 4 ml of 0.74% of cold KCl is added and the rest of the procedure takes place on a bed of ice. Each brain is ground 6 times at 1000 rev/min, each cycle comprising 5 minutes of grinding and 5 minutes of rest. The oxysterols are extracted according to the Folch procedure described above (II.3.). The lipid residue is then subjected to adsorption chromatography on a silica column.
The silica (8 g) is prepared in 40 ml of the hexane:ether mixture (diethyl-oxide (3:7, v/v) and then poured into the appropriate columns. The height of the silica bed is 18 cm and its volume is 15 ml.
A suitable quantity of mouse brain extract is dissolved in 1 ml of the first eluent system and deposited on the silica bed. Elution takes place in 4 steps in order to concentrate the fractions containing the oxysterols and remove as far as possible the lipids contaminating the mouse brain, in particular cholesterol.
The groups of fractions are evaporated to dryness, dissolved in acetone and the appropriate volumes are subjected to HPTLC chromatography.
The treatment of the healthy mice per os with BIM2b PO and the provenance of the brains are described in Example 4.
The compound BIM2b and its metabolites in the brains were separated, detected and quantified by HPTLC as described in the Methods section.

[4] = in vivo
Description: The GBM tumour was obtained by necropsy of a dog with glioblastoma, which was treated by the oral route with BIM2b PO and which lived with a good quality of life for 8 months. Necropsy was carried out 21 days after stopping the treatment with BIM2b PO. The tumour was fixed in formol mainly for histopathology analysis and a remaining fragment was analysed for quantification of BIM2b.
The fragments of dog brains, stored individually in cryotubes at +4° C. in a bath of formol, are dried on sopalin paper before they are weighed and put in the Potter. Just as for extraction of the mouse brains, each fragment was extracted after adding 4 ml of cold 0.74% KCl. The procedures for homogenization and extraction are the same as was described for the mouse brains in the Methods section.
Dry lipid extract of the dog GBM tumour fragment was thus obtained and was chromatographed sequentially on a SEP PAK Classic Silica cartridge; then on SEP PAK Plus C18 (with eluent A=5 mM of ammonium acetate/ultrapure water and B=5 mM of ammonium acetate/MetOH).
The compound BIM2b and its metabolites in the tumour are separated, detected and quantified by HPTLC as described in Section II) Methods.

[5] = system: spontaneous gliomas; assay: Anti-GBM efficacy of BIM2b PO by the oral route in dogs with spontaneous gliomas; assay type: in vivo; conditions: oral treatment; mean survival of a dog with GBM 2-3 months
Description: 9 dogs with spontaneous gliomas diagnosed by imagery were included in the study.
The condition and the tumour volume are evaluated by MRI.
On day D0 (1st administration), the GBM dog subject is examined clinically and a blood sample is collected for analysis of the biochemical parameters. On D15, an electrocardiogram is recorded and a blood sample is taken.
Electrocardiograms, blood samples and MRI are carried out on D42, D63, D84 and D105, then 3 months and 6 months after stopping the treatment.
The tumour response is evaluated by MRI based on the RECIST criteria (Response Evaluation Criteria in Solid Tumours). These criteria define the tumoral response as follows: • progression is an increase in size of the largest axis of the tumour of more than 20% relative to the preceding MRI; • regression is defined by a decrease in the size of the largest axis of the tumour of more than 30% relative to the preceding MRI; • stability is defined by a change in the size of the tumour between a decrease of less than 30% and an increase of less than 20%.

[6] = system: wild-type mice; assay: Investigation of toxicity of BIM2b PO in healthy mice
Description: (§1) The composition from Example 2 was administered orally (by tube) to wild-type mice at a rate of 1.5 mg (50 μl of BIM2 PO) per animal, twice a day, 5 days out of 7 with a maximum duration of treatment of 21 days.
(§2) In the treated group, 2 mice were sacrificed after 18 days and 3 mice were sacrificed after 21 days. In the control group, 3 mice were sacrificed after 21 days.
(§3) The samples of internal organs (stomach, alimentary canal, liver, kidney, lung, heart) were immersed in 4% formaldehyde for 72 h and stored at 4° C., and then embedded in paraffin. The samples underwent macroscopic analysis before and after thinning.
(§4) Histological examination of the internal organs fixed with formaldehyde and toxicological quantifications were carried out on sections stained with haematoxylin-eosin-saffron according to a 4-level evaluation system complying with the nomenclature (3).
(§5) All the sections were examined for possible signs of cellular alteration, degeneration, necrosis, inflammation, fibrosis etc.

[7] = system: wild-type mice; conditions: mouse, in vivo
Description: as §1, §2, §3, §4, §5

[8] = system: GBM; conditions: cited from earlier work

## CC(=O)O[C@H]1C=C2CC(OC(=O)C3COC(C)(C)O3)CC[C@]2(C)C2CC[C@@]3(C)C(CCC3[C@H](C)CCCC(C)C)C21 (stereo in doubt) [BIM2b, 7-acetoxy-10,13-dimethyl-17-(6-methylheptan-2-yl)-2,3,4,7,8,9,10,11,12,13,14,15,16,17-tetradecahydro-1H-cyclopenta[a]phenanthren-3-yl 2,2-dimethyl-1,3-dioxolane-4-carboxylate]
[1]
  hepatic or renal toxicity: did not demonstrate hepatic or renal toxicity
[1]; administered as BIM2b PO
  toxicity (conclusion): does not lead to any toxicity
[2]
  undesirable clinical effects: did not cause undesirable clinical effects
[3]; Day D2
  Compound BIM2b (μg/g of brain): 12.5 μg/g of brain
[3]; Day D4
  Compound BIM2b (μg/g of brain): 7.1 μg/g of brain
[3]; Day D18
  Compound BIM2b (μg/g of brain): 11.7 μg/g of brain
[3]; Day D22 (treatment stopped on D20)
  Compound BIM2b (μg/g of brain): 1.0 μg/g of brain
[3]; on D18
  percentage of BIM2b found in the brains relative to the total quantity ingested: 0.013%
[3]; on D22, after stopping of the treatment on D20
  drop in the content of BIM2b in the mouse brain: 91.5%
[3]; treated healthy mice, oral
  crossing of the blood-brain barrier (BBB): crosses the blood-brain barrier (BBB)
[4]; dog
  crossing of the BTB: crosses the BTB
  percentage by weight of BIM2b found in the whole tumour relative to the total quantity ingested: 0.39%
[4]; 21 days after stopping the treatment
  ratio of percentage in dog tumour to percentage in brains of healthy mice: 30 times
[5]
  survival of the GBM dog subject whose tumour was analysed: 8 months
[6]; oral
  toxicity (conclusion): does not entrain any toxicity
[6]; twice a day, 5 times a week
  undesirable clinical effects: did not give rise to undesirable clinical effects
[7]
  hepatic or renal toxicity (biological parameters): did not demonstrate hepatic or renal toxicity

## O=P1(N(CCCl)CCCl)NCCCO1 (stereo not drawn) [cyclophosphamide]
[8]
  median survival for patients with GBM: do not improve the median survival

## bleomycin
[8]
  median survival for patients with GBM: do not improve the median survival

## N.N.[Cl][Pt][Cl] [cisplatin]
[8]
  median survival for patients with GBM: do not improve the median survival

## CN(C)C/C=C/C(=O)Nc1cc2c(Nc3ccc(F)c(Cl)c3)ncnc2cc1O[C@H]1CCOC1 [afatinib dimaleate]
[8]
  median survival for patients with GBM: do not improve the median survival
